In patent publication US7842802B2, “Vinorelbine derivatives” (priority 2003, dated 2010) one finds GI50 data, which are given here for 22 compounds.

One may read the GI50 as the concentration at which growth is held to half of that of the control.

The structures appear in SMILES notation. Like-named read-outs stand apart in the source and are kept apart here.

The test system of test [1] is MCF-7 human breast carcinoma line. The experiment in a line: MCF-7 GI50 determination (crystal violet). It is filed as cell-based. To be noted: Homo sapiens, MCF7, 96 h, read-out: MCF-7 Cells GI50. How it is done:
Growth inhibition (GI50) values were measured on the human breast carcinoma line, MCF-7. MCF-7 cells were plated at 2×10^4 cells/well in 96 well plates and grown for 24 hours in drug free media. On day 2, test compounds were added to the plates at 10-fold dilutions. Four days later, cells were fixed by the addition of glutaraldehyde to 0.75%. After 30 min, the fixed cells were extensively rinsed with distilled water and dried at room temperature for one hour. The cells were then stained with a 0.2% crystal violet solution for one hour at room temperature. Unbound stain was removed by ten rinses with tap water and plates were allowed to air dry for 30 min. The crystal violet was then solubilized by the addition of 10% acetic acid for 15 min and quantified by measuring absorbance at 570 nm on a Molecular Devices microplate reader. Growth inhibition was calculated according to the following equation: GI=[…], where the optical density (OD) of the test well after 4 days of treatment was T, the OD of the wells in the control plate on day 0 was T0. Plots of percent growth inhibition versus inhibitor concentration were used to determine the GI50.

For test [2], the system named is HeLa S-3 human cervical carcinoma cell line. The experiment in a line: HeLa GI50 determination (SRB). Format: cell-based. The settings on record: Homo sapiens, HeLa S3, 48 h, read-out: HeLa Cells GI50. Here is the method:
Growth inhibition (GI50) values were measured on the human cervical carcinoma cell line, HeLa S-3, which were selected for growth on plastic. The HeLa cell assay was based on the description of Skehan et al., J. Natl. Cancer Inst., 82:1107-12 (1990), which is hereby incorporated by reference in its entirety. HeLa cells were plated at 2×10^4 cells/well in 96 well plates. One day later, a control plate was fixed by the addition of TCA to 5%. After five rinses with tap water, the plate was air-dried and stored at 4° C. Test compounds were added to the remaining plates at 10-fold dilutions. Two days later, all plates were fixed as described above. Cells were then stained by the addition of 100 μL per well of 0.4% sulforhodamine B (SRB) in 1% acetic acid for 30 min at 4° C. Wells were then quickly rinsed 5× with 1% acetic acid and allowed to air dry. The SRB was then solubilized by the addition of 100 μL per well of unbuffered 10 mM Tris base. Dye was quantified by measuring absorbance at 490 nm on a Molecular Devices microplate reader. Growth inhibition was calculated according to the following equation: GI=100×(T−T0)/(C−T0), where the optical density (OD) of the test well after 2 days of treatment was T, the OD of the wells in the control plate on day 0 was T0 and C was the OD of untreated wells. Plots of percent growth inhibition versus inhibitor concentration were used to determine the GI50.

The mark [3] stands for this setting: MCF-7, 4 days of treatment, crystal violet.
The mark [4] stands for this setting: HeLa S-3, 2 days of treatment, SRB.

Turning to `CCC1=C[C@H]2CN(C1)Cc1c([nH]c3ccc(Nc4ccc(OC)cc4)cc13)[C@@](C(=O)OC)(c1cc3c(cc1OC)N(C)[C@H]1[C@@](O)(C(=O)OC)[C@H](OC(C)=O)C4C(CC)=CCN5CC[C@]31[C@H]45)C2` (some centres unmarked) [Example 36, 11′-(4-methoxyphenylamino)vinorelbine], the results for the GI50 in test [1] (setting [3]) and in test [2] (setting [4]) were 400 nM and 300 nM, respectively.

With `CCC1=C[C@H]2CN(C1)Cc1c([nH]c3ccc(-c4ccccc4)cc13)[C@@](C(=O)OC)(c1cc3c(cc1OC)N(C)[C@H]1[C@@](O)(C(=O)OC)[C@H](OC(C)=O)C4C(CC)=CCN5CC[C@]31[C@H]45)C2` (some centres unmarked) [Example 30, 11′-phenylvinorelbine], the GI50 was 300 nM in test [1] (setting [3]) and 70 nM in test [2] (setting [4]).

For the compound `CCC1=C[C@H]2CN(C1)Cc1c([nH]c3ccc(C#N)cc13)[C@@](C(=O)OC)(c1cc3c(cc1OC)N(C)[C@H]1[C@@](O)(C(=O)OC)[C@H](OC(C)=O)C4C(CC)=CCN5CC[C@]31[C@H]45)C2` (some centres unmarked) [Example 25, 11′-cyanovinorelbine], the GI50 in test [1] (setting [3]) came to 6 nM; in test [2] (setting [4]), 1 nM.

In the case of `CCC1=C[C@H]2CN(C1)Cc1c([nH]c3ccc([S+]([O-])CCO)cc13)[C@@](C(=O)OC)(c1cc3c(cc1OC)N(C)[C@H]1[C@@](O)(C(=O)OC)[C@H](OC(C)=O)C4C(CC)=CCN5CC[C@]31[C@H]45)C2` (some centres unmarked) [Example 19, 11′-(3-hydroxyethylsulfinyl)vinorelbine], the figures for the GI50 in test [1] (setting [3]) and in test [2] (setting [4]) were over 1000 nM and 300 nM, respectively.

For `CCC1=C[C@H]2CN(C1)Cc1c([nH]c3ccc(-c4c(C)noc4C)cc13)[C@@](C(=O)OC)(c1cc3c(cc1OC)N(C)[C@H]1[C@@](O)(C(=O)OC)[C@H](OC(C)=O)C4C(CC)=CCN5CC[C@]31[C@H]45)C2` (some centres unmarked) [Example 32, 11′-(3,5-dimethylisoxazol-4yl)vinorelbine], the GI50 came out at 400 nM in test [1] (setting [3]) and 300 nM in test [2] (setting [4]).

As to `CCC1=C[C@H]2CN(C1)Cc1c([nH]c3ccc(SCCCCO)cc13)[C@@](C(=O)OC)(c1cc3c(cc1OC)N(C)[C@H]1[C@@](O)(C(=O)OC)[C@H](OC(C)=O)C4C(CC)=CCN5CC[C@]31[C@H]45)C2` (some centres unmarked) [Example 12, 11′-(4-hydroxybutylsulfanyl)vinorelbine], the GI50 in test [1] (setting [3]) was 40 nM; in test [2] (setting [4]), 20 nM.

`CCC1=C[C@H]2CN(C1)Cc1c([nH]c3ccc(SCC(=O)OC)cc13)[C@@](C(=O)OC)(c1cc3c(cc1OC)N(C)[C@H]1[C@@](O)(C(=O)OC)[C@H](OC(C)=O)C4C(CC)=CCN5CC[C@]31[C@H]45)C2` (some centres unmarked) [Example 9, 11′-(methoxycarbonylmethylsulfanyl) vinorelbine]: the GI50 in test [1] (setting [3]) is 30 nM; in test [2] (setting [4]), 20 nM.

Consider `CCCCC#Cc1ccc2[nH]c3c(c2c1)CN1CC(CC)=C[C@@H](C1)C[C@]3(C(=O)OC)c1cc2c(cc1OC)N(C)[C@H]1[C@@](O)(C(=O)OC)[C@H](OC(C)=O)C3C(CC)=CCN4CC[C@]21[C@H]34` (some centres unmarked) [Example 22, 11′-hexynylvinorelbine], for which the figures for the GI50 in test [1] (setting [3]) and in test [2] (setting [4]) were 50 nM and 40 nM, respectively.

As to `CCC1=C[C@H]2CN(C1)Cc1c([nH]c3ccc(I)cc13)[C@@](C(=O)OC)(c1cc3c(cc1OC)N(C)[C@H]1[C@@](OC)(C(=O)OC)[C@H](OC(C)=O)C4C(CC)=CCN5CC[C@]31[C@H]45)C2` (some centres unmarked) [Example 34, 3-methyl-11′-iodo vinorelbine], the GI50 in test [1] (setting [3]) and in test [2] (setting [4]) was 30 nM in each case.

Regarding `CCC1=C[C@H]2CN(C1)Cc1c([nH]c3ccc(SCCO)cc13)[C@@](C(=O)OC)(c1cc3c(cc1OC)N(C)[C@H]1[C@@](O)(C(=O)OC)[C@H](OC(C)=O)C4C(CC)=CCN5CC[C@]31[C@H]45)C2` (some centres unmarked) [Example 14, 11′-(2-hydroxyethylsulfanyl)vinorelbine], the GI50 in test [1] (setting [3]) was 50 nM; in test [2] (setting [4]), 30 nM.

Turning to `CCC1=C[C@H]2CN(C1)Cc1c([nH]c3ccc(C(=O)OCC(Cl)(Cl)Cl)cc13)[C@@](C(=O)OC)(c1cc3c(cc1OC)N(C)[C@H]1[C@@](O)(C(=O)OC)[C@H](OC(C)=O)C4C(CC)=CCN5CC[C@]31[C@H]45)C2` (some centres unmarked) [Example 28, 11′-(2,2,2-trichloroethoxycarbonyl) vinorelbine], the GI50 in test [1] was over 1000 nM; in test [2] it was 300 nM.

For `CCC1=C[C@H]2CN(C1)Cc1c([nH]c3ccc(C#CCC(C)C)cc13)[C@@](C(=O)OC)(c1cc3c(cc1OC)N(C)[C@H]1[C@@](O)(C(=O)OC)[C@H](OC(C)=O)C4C(CC)=CCN5CC[C@]31[C@H]45)C2` (some centres unmarked) [Example 23, 11′-(4-methylpentynyl) vinorelbine], the GI50 in test [1] (setting [3]) and in test [2] (setting [4]) was 300 nM each time.

`CCC1=C[C@H]2CN(C1)Cc1c([nH]c3ccc([S+]([O-])CCCO)cc13)[C@@](C(=O)OC)(c1cc3c(cc1OC)N(C)[C@H]1[C@@](O)(C(=O)OC)[C@H](OC(C)=O)C4C(CC)=CCN5CC[C@]31[C@H]45)C2` (some centres unmarked) [Example 20, 11′-(3-hydroxypropylsulfinyl)vinorelbine]: the GI50 was found to be 300 nM in test [1] (setting [3]) and 40 nM in test [2] (setting [4]).

Take `CCC1=C[C@H]2CN(C1)Cc1c([nH]c3ccc(SCc4ccccc4F)cc13)[C@@](C(=O)OC)(c1cc3c(cc1OC)N(C)[C@H]1[C@@](O)(C(=O)OC)[C@H](OC(C)=O)C4C(CC)=CCN5CC[C@]31[C@H]45)C2` (some centres unmarked) [Example 15, 11′-(2-fluorobenzylsulfanyl)vinorelbine]: the GI50 was determined as 400 nM in test [1] (setting [3]) and 200 nM in test [2] (setting [4]).

On to `CCC1=C[C@H]2CN(C1)Cc1c([nH]c3ccc(/C=C/C(=O)OC(C)(C)C)cc13)[C@@](C(=O)OC)(c1cc3c(cc1OC)N(C)[C@H]1[C@@](O)(C(=O)OC)[C@H](OC(C)=O)C4C(CC)=CCN5CC[C@]31[C@H]45)C2` (some centres unmarked) [Example 5, 11′-(2-tert-butoxycarbonylvinyl) vinorelbine], for which the figures for the GI50 in test [1] and in test [2] were 600 nM and 300 nM, respectively.

For the compound `CCC1=C[C@H]2CN(C1)Cc1c([nH]c3ccc(S)cc13)[C@@](C(=O)OC)(c1cc3c(cc1OC)N(C)[C@H]1[C@@](O)(C(=O)OC)[C@H](OC(C)=O)C4C(CC)=CCN5CC[C@]31[C@H]45)C2` (some centres unmarked) [Example 8, 11′-thiovinorelbine], the GI50 in test [1] (setting [3]) came out at 60 nM; in test [2] (setting [4]) it was 40 nM.

As to `CCC1=C[C@H]2CN(C1)Cc1c([nH]c3ccc(C(C)=O)cc13)[C@@](C(=O)OC)(c1cc3c(cc1OC)N(C)[C@H]1[C@@](O)(C(=O)OC)[C@H](OC(C)=O)C4C(CC)=CCN5CC[C@]31[C@H]45)C2` (some centres unmarked) [Example 26, 11′-acetylvinorelbine], the figures for the GI50 in test [1] (setting [3]) and in test [2] (setting [4]) were 20 nM and 4 nM, respectively.

As to `C#Cc1ccc2[nH]c3c(c2c1)CN1CC(CC)=C[C@@H](C1)C[C@]3(C(=O)OC)c1cc2c(cc1OC)N(C)[C@H]1[C@@](O)(C(=O)OC)[C@H](OC(C)=O)C3C(CC)=CCN4CC[C@]21[C@H]34` (some centres unmarked) [Example 21, 11′-ethynylvinorelbine], the GI50 in test [1] (setting [3]) was found to be 5 nM; in test [2] (setting [4]) it was 0.4 nM.

As for `CCC1=C[C@H]2CN(C1)Cc1c([nH]c3ccc(C(=O)OC)cc13)[C@@](C(=O)OC)(c1cc3c(cc1OC)N(C)[C@H]1[C@@](O)(C(=O)OC)[C@H](OC(C)=O)C4C(CC)=CCN5CC[C@]31[C@H]45)C2` (some centres unmarked) [Example 27, 11′-(methoxycarbonyl) vinorelbine], the figures for the GI50 in test [1] (setting [3]) and in test [2] (setting [4]) were 50 nM and 30 nM, respectively.

With `CCC1=C[C@H]2CN(C1)Cc1c([nH]c3ccc(SC)cc13)[C@@](C(=O)OC)(c1cc3c(cc1OC)N(C)[C@H]1[C@@](O)(C(=O)OC)[C@H](OC(C)=O)C4C(CC)=CCN5CC[C@]31[C@H]45)C2` (some centres unmarked) [Example 10, 11′-(methylsulfanyl) vinorelbine], the GI50 stood at 1 nM in test [1] (setting [3]) and 0.3 nM in test [2] (setting [4]).

Consider `CCC1=C[C@H]2CN(C1)Cc1c([nH]c3ccc(SCCC(=O)OC)cc13)[C@@](C(=O)OC)(c1cc3c(cc1OC)N(C)[C@H]1[C@@](O)(C(=O)OC)[C@H](OC(C)=O)C4C(CC)=CCN5CC[C@]31[C@H]45)C2` (some centres unmarked) [Example 7, 11′-(methoxycarbonylethylsulfanyl) vinorelbine], for which the GI50 in test [1] (setting [3]) is 400 nM; in test [2] (setting [4]) it was 200 nM.

For the compound `CCC1=C[C@H]2CN(C1)Cc1c([nH]c3ccc(C#CCOC)cc13)[C@@](C(=O)OC)(c1cc3c(cc1OC)N(C)[C@H]1[C@@](O)(C(=O)OC)[C@H](OC(C)=O)C4C(CC)=CCN5CC[C@]31[C@H]45)C2` (some centres unmarked) [Example 24, 11′-(3-methoxypropynyl)vinorelbine], the GI50 was determined as 300 nM in test [1] (setting [3]) and 100 nM in test [2] (setting [4]).
